Consider 46 molecules from US8895548B2, “Pharmaceutical composition for treating alzheimer's disease” (Shionogi & Co., Ltd., priority 2007, dated 2014).

For series [1], the system named is brain β amyloid 1-40. The series can be described thus: Lowering effect on brain β amyloid in rats. The series is classed as in vivo. The conditions noted are these: male Crg:SD rat, 10 mg/kg orally, brain isolated 3 hours after administration; for inhibition in vivo at 10 mg/kg: po, ELISA, read-out: reduction of brain β amyloid 1-40 compared to vehicle control group. How it is done:
(§1) A test compound was suspended in 0.5% methylcellulose, the final concentration was adjusted to 2 mg/mL, and this was orally administered to male Crg:SD rat (7 to 9 week old) at 10 mg/kg. In a vehicle control group, only 0.5% methylcellulose was administered, and an administration test was performed at 3 to 8 animals per group. A brain was isolated 3 hours after administration, a cerebral hemisphere was isolated, a weight thereof was measured, the hemisphere was rapidly frozen in liquid nitrogen, and stored at −80° C. until the day for extraction. The frozen cerebral hemisphere was transferred to a homogenizer manufactured by Teflon (registered trade mark) under ice cooling, a 5-fold volume of a weight of an extraction buffer (containing 1% CHAPS ({3-[(3-chloroamidopropyl)dimethylammonio]-1-propanesulfonate}), 20 mM Tris-HCl (pH 8.0), 150 mM NaCl, Complete (Roche) protease inhibitor) was added, up and down movement was repeated, and this was homogenized to solubilize for 2 minutes. The suspension was transferred to a centrifugation tube, allowed to stand on an ice for 3 hours or more and, thereafter centrifuged at 100,000×g and 4° C. for 20 minutes. After centrifugation, the supernatant was transferred to an ELISA plate (product No. 27730, Immuno-Biological Laboratories) for measuring 3 amyloid 1-40. ELISA measurement was performed according to the attached instruction. The lowering effect was calculated as a ratio compared to the brain b amyloid 1-40 level of vehicle control group.
A general note: In an ELISA, binding on a coated surface is turned into a signal by an enzyme label.

Series [2] relates to brain β amyloid 1-40. The series can be described thus: Lowering effect on brain β amyloid in mice. The conditions noted are these: sc, male Crlj:CD-1(ICR) mouse, 100 mg/kg subcutaneously, brain isolated 3 hours after administration; for response vs control in vivo at 100 mg/kg: read-out: brain β amyloid 1-40, % of vehicle control group; for inhibition in vivo at 100 mg/kg: ELISA, read-out: reduction of brain β amyloid 1-40 compared to vehicle control group. The series is classed as in vivo. How it is done: as §1
A test compound was suspended in 0.5% methylcellulose, the final concentration was adjusted to 10 mg/mL, and this was subcutaneously administered to back of male Crlj:CD-1(ICR) mouse (7 to 8 week old) at 100 mg/kg. In a vehicle control group, only 0.5% methylcellulose was administered. A test was performed at 4 to 8 animals per group. A brain was isolated 3 hours after administration. The subsequent operations were the same as in the above test in rat.

The subject of series [3] is brain β amyloid 1-40. Put plainly: Lowering effect on brain β amyloid in mice. The series is classed as in vivo. The conditions noted are these: sc; male Crlj:CD-1(ICR) mouse, 3 hours after 30 mg/kg of subcutaneous administration; read-out: brain β amyloid 1-40, % of vehicle control group.

A word on the melting point: it is the temperature, or range, at which the solid turns liquid.

In the case of `CC1(C2=CC=C(F)CC2)CCCSC(N)=N1.Cl` (centres unmarked), the melting point fell in the range of 219 to 222 °C.

Consider `C[C@]1(c2ccccc2)C[C@@H](c2ccccc2)SC(N)=N1.Cl`, for which the melting point fell in the range of 161 to 165 °C.

As to `CC1(C2=CC=CCC2)CCCSC(N)=N1.Cl` (centres unmarked), the melting point was in the range of 223 to 225 °C.

Molecule `C[C@]1(c2ccccc2)C[C@H](c2ccccc2)SC(N)=N1` (racemic) [Compound 835] returned a melting point of 139 to 140 °C.

For `COc1ccc([C@]2(C)N=C(N)SC[C@H]2C)cc1` [Compound 8], the melting point lay within 214 to 217 °C.

Turning to `C[C@@]1(c2cccc(NC(=O)c3ncc(Cl)cc3Cl)c2)CCSC(N)=N1` [Compound 39], the inhibition in vivo at 10 mg/kg in the series with brain β amyloid 1-40 [1] fell in the range of 60 to 90%.

Regarding `COc1ccc([C@@]2(C)C[C@H](C)SC(N)=N2)cc1` [Compound 86], the melting point lay within 141 to 142 °C.

For the molecule `CC1(c2cccc(NC(=O)c3ncc(Cl)cc3Cl)c2)CCSC(N)=N1` (centres unmarked) [Compound 127], the response vs control in vivo at 100 mg/kg with brain β amyloid 1-40 [2] turned out to be 25.2%.

Consider `CC1(c2cccc(NC(=O)C3CN=CC=N3)c2)CCSC(N)=N1` (centres unmarked) [Compound 164], for which the melting point lay in the range of 91 to 96 °C.

In the case of `CC1(c2cc(Br)cc(NC(=O)c3ccc(Cl)cn3)c2)CCSC(N)=N1` (centres unmarked) [Compound 165], in the series with brain β amyloid 1-40 [2], the inhibition in vivo at 100 mg/kg was 60 to 90%.

In the case of `CC1(c2cc(NC(=O)c3ncc(Cl)cn3)ccc2F)CCSC(N)=N1` (centres unmarked) [Compound 204], in the series on brain β amyloid 1-40 [1], the inhibition in vivo at 10 mg/kg lay within 60 to 90%.

For the molecule `CC1(c2cccc(NC(=O)c3ccc(F)cn3)c2)CCSC(N)=N1` (centres unmarked) [Compound 212], in the series on brain β amyloid 1-40 [1], the inhibition in vivo at 10 mg/kg lay within 60 to 90%.

Consider `CC1(c2cccc(C(=O)Nc3ccc(Cl)cn3)c2)CCSC(N)=N1` (centres unmarked) [Compound 220], for which the inhibition in vivo at 100 mg/kg in the series on brain β amyloid 1-40 [2] lay within 60 to 90%.

Turning to `C[C@@]1(c2cc(NC(=O)c3n[nH]c4ccccc34)ccc2F)CCSC(N)=N1` [Compound 241], the melting point was 187 to 190 °C.

As to `COc1cnc(C(=O)Nc2cccc(C3(C)CCSC(N)=N3)c2)cn1` (centres unmarked) [Compound 243], in the series with brain β amyloid 1-40 [1], the inhibition in vivo at 10 mg/kg was in the range of 60 to 90%.

`Cc1cnc(C(=O)Nc2cccc(C3(C)CCSC(N)=N3)c2)cn1` (centres unmarked) [Compound 309]: the inhibition in vivo at 100 mg/kg in the series on brain β amyloid 1-40 [2] lay within 60 to 90%.

For the molecule `Cc1cnc(C(=O)Nc2ccc(F)c(C3(C)CCSC(N)=N3)c2)cn1` (centres unmarked) [Compound 359], in the series with brain β amyloid 1-40 [1], the inhibition in vivo at 10 mg/kg was in the range of 60 to 90%.

With `CC1(c2cc(NC(=O)c3ccc(C(F)(F)F)cn3)ccc2F)CCSC(N)=N1` (centres unmarked) [Compound 396], in the series with brain β amyloid 1-40 [2], the response vs control in vivo at 100 mg/kg amounted to 38.4%.

For `CC1(c2cccc(NC(=O)c3ncc(C(F)(F)F)cc3Cl)c2)CCSC(N)=N1` (centres unmarked) [Compound 482], in the series with brain β amyloid 1-40 [1], the inhibition in vivo at 10 mg/kg fell in the range of 60 to 90%.

For the molecule `CC1(c2cccc(CO)c2)CCSC(N)=N1` (centres unmarked) [Compound 501], the melting point fell in the range of 155 to 158 °C.

`CC1(c2cccc(NC(=O)c3ncc(Cl)cn3)c2)CCSC(N)=N1` (centres unmarked) [Compound 515] returned a melting point of 204 to 208 °C.

For the molecule `CC1(C2C=C(/C=N/OCc3cccnc3)C=CC2)CCSC(N)=N1` (centres unmarked) [Compound 584], the melting point was 152 to 153 °C.

In the case of `CC1(c2cc(NC(=O)c3ccc(F)cn3)ccc2F)CCSC(N)=N1` (centres unmarked) [Compound 605], the response vs control in vivo at 100 mg/kg with brain β amyloid 1-40 [2] came to 36.5%.

Consider `Cc1cnc(C(=O)Nc2ccc(F)c([C@]3(C)CCSC(N)=N3)c2)cn1` [Compound 622], for which the “brain β amyloid 1-40, % of vehicle control group” value in the series with brain β amyloid 1-40 [1] is reported as 50.1 % of vehicle control group.

Regarding `COc1cnc(C(=O)Nc2ccc(F)c([C@]3(C)CCSC(N)=N3)c2)cn1` [Compound 634], the “brain β amyloid 1-40, % of vehicle control group” value in the series on brain β amyloid 1-40 [1] was 21.1 % of vehicle control group.

Take `CC1(c2cccc(NC(=O)c3ccc(C#N)cn3)c2)CCSC(N)=N1` (centres unmarked) [Compound 651]: in the series on brain β amyloid 1-40 [3], the response vs control in vivo at 30 mg/kg was 52.3%.

`COC(=O)c1cc(C(=O)Nc2cccc(C3(C)CCSC(N)=N3)c2)nn1C` (centres unmarked) [Compound 687] gave a melting point of 164 to 187 °C.

Turning to `C[C@@]1(c2cccc(NC(=O)c3cnc(O)cn3)c2)CCSC(N)=N1` [Compound 733], the inhibition in vivo at 10 mg/kg with brain β amyloid 1-40 [1] is 60 to 90%.

In the case of `CC1(c2cc(Cl)cc(NC(=O)c3ccc(Cl)cn3)c2)CCSC(N)=N1` (centres unmarked) [Compound 739], the inhibition in vivo at 100 mg/kg in the series on brain β amyloid 1-40 [2] fell in the range of 60 to 90%.

With `C[C@@]1(C2C=C(NC(=O)c3ncc(Cl)cc3N)C=CC2)CCSC(N)=N1` (some centres unmarked) [Compound 743], the melting point fell in the range of 148 to 150 °C.

`CC1(c2ccccc2)CCN=C(N)S1.Cl` (centres unmarked) [Compound 783] returned a melting point of 205 to 206 °C.

Take `CC1(c2cccc(NC(=O)c3ccc(Cl)cn3)c2)CCSC(N)=N1` (centres unmarked) [Compound 793]: the inhibition in vivo at 10 mg/kg in the series with brain β amyloid 1-40 [1] was 60 to 90%.

For `CC1(c2cccc(NC(=O)c3ncc(Br)cn3)c2)CCSC(N)=N1` (centres unmarked) [Compound 900], the inhibition in vivo at 100 mg/kg with brain β amyloid 1-40 [2] lay within 60 to 90%.

Molecule `CC1(c2cc(NC(=O)c3ccc(Cl)cn3)cc(C(F)(F)F)c2)C=C(N)SCC1` (centres unmarked) [Compound 964] registered a melting point of 185 to 187 °C. Moreover, the inhibition in vivo at 100 mg/kg in the series on brain β amyloid 1-40 [2] lay in the range of 60 to 90%.

Take `CC1(c2cc(Br)cc(NC(=O)c3cc4ccccc4s3)c2)CCSC(N)=N1` (centres unmarked) [Compound 1014]: in the series with brain β amyloid 1-40 [2], the inhibition in vivo at 100 mg/kg was in the range of 60 to 90%.

Take `CC1(c2cc(NC(=O)c3ccc(Cl)cn3)ccc2F)CCSC(N)=N1` (centres unmarked) [Compound 1043]: the response vs control in vivo at 100 mg/kg in the series with brain β amyloid 1-40 [2] is 15%.

`CC1(c2ccc(OC3C=CC=CC3)cc2)CCSC(N)=N1` (centres unmarked) [Compound 1055] came in with a melting point of 169 to 170 °C.

Regarding `Cc1ccc(OC2=CCC(C3(C)CCSC(N)=N3)C=C2)cc1` (centres unmarked) [Compound 1067], the melting point was in the range of 162 to 165 °C.

Molecule `CC1(c2ccc(F)c(C(=O)NC3=CC(Cl)CC=N3)c2)CCSC(N)=N1` (centres unmarked) [Compound 1068] returned a melting point of 132 to 134 °C.

As to `CCS/C(N)=N\C(C)C1C=C(NC(=O)c2cnc3ccccc3n2)C=CC1` (centres unmarked) [Compound 1115], the melting point lay within 167 to 170 °C.

`CC1(c2ccc(F)c(N3N=C4c5cc(Cl)ccc5NCC4C3=O)c2)CCSC(N)=N1` (centres unmarked) [Compound 1166] gave a melting point of 290 to 295 °C.

Take `CC1(c2cc(NC(=O)c3ccc(Cl)cn3)ccc2Cl)CCSC(N)=N1` (centres unmarked) [Compound 1199]: the response vs control in vivo at 100 mg/kg in the series with brain β amyloid 1-40 [2] was 14.1%.

As for `CC1(c2cccc(NC(=O)c3ccc(C(F)(F)F)cn3)c2)CCSC(N)=N1` (centres unmarked) [Compound 1244], the response vs control in vivo at 100 mg/kg in the series with brain β amyloid 1-40 [2] was determined as 50.1%.

In the case of `CC1(c2cc(Br)cc(NC(=O)c3ccc(Br)cc3)c2)CCSC(N)=N1` (centres unmarked) [Compound 1262], the inhibition in vivo at 100 mg/kg in the series on brain β amyloid 1-40 [2] lay within 60 to 90%.

For the molecule `CC1(c2cccc(NC(=O)c3cnc(N=[N+]=N)cn3)c2)CCSC(N)=N1` (centres unmarked) [Compound 1266], the inhibition in vivo at 100 mg/kg with brain β amyloid 1-40 [2] was 60 to 90%.

As to `Cc1cc(C(=O)Nc2ccc(F)c(C3(C)CCSC(N)=N3)c2)c(C)o1` (centres unmarked) [Compound 1282], the inhibition in vivo at 10 mg/kg in the series with brain β amyloid 1-40 [1] was in the range of 60 to 90%.
